Data as given in the supplement of paper PMC10307832.

Experiments:
Assay in all cases: relative viability (nuclei count vs DMSO), 5 days (fraction); higher = more cells survive
[1] = compound: COc1cc(-c2nn([C@H]3CC[C@H](N4CCN(C(C)=O)CC4)CC3)c3ncnc(N)c23)ccc1NC(=O)c1cc2ccccc2n1C
Summary of the method: (§1)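 Acceptance criteria were a control CV below 25% and at least one doubling per plate. Lung cancer cell lines in 1536-well plates got five library-drug doses (not always all listed) √10 apart by pinning and were left 5 days with no medium change. Viability divides treated-well nuclei by vehicle-well nuclei and is the median across plates. Nuclei were counted by MetaXpress from 4× Hoechst images.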

Midostaurin = compound: CO[C@@H]1[C@H](N(C)C(=O)c2ccccc2)C[C@H]2O[C@]1(C)n1c3ccccc3c3c4c(c5c6ccccc6n2c5c31)C(=O)NC4 [Midostaurin]
Summary of the method: as §1

Midostaurin + Lapatinib = compound: CO[C@@H]1[C@H](N(C)C(=O)c2ccccc2)C[C@H]2O[C@]1(C)n1c3ccccc3c3c4c(c5c6ccccc6n2c5c31)C(=O)NC4 [Midostaurin] + CS(=O)(=O)CCNCc1ccc(-c2ccc3ncnc(Nc4ccc(OCc5cccc(F)c5)c(Cl)c4)c3c2)o1 [Lapatinib] (partner 2 µM)
Summary of the method: (§2)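 Relative viability divides the nuclei count in treated wells by that in vehicle wells. Lung cancer cell lines were seeded in 1536-well plates, dosed by pin tool the next day, and fixed and stained after 5 days in one step with final 0.05% Triton X-100, 1% formaldehyde and 1 ug/ml Hoechst. Dosing was a single drug or a fixed anchor-drug dose plus five library-drug doses (not always all listed) in √10 steps, and values are medians of duplicate plates imaged at 4×.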

Midostaurin + Foretinib = compound: CO[C@@H]1[C@H](N(C)C(=O)c2ccccc2)C[C@H]2O[C@]1(C)n1c3ccccc3c3c4c(c5c6ccccc6n2c5c31)C(=O)NC4 [Midostaurin] + COc1cc2c(Oc3ccc(NC(=O)C4(C(=O)Nc5ccc(F)cc5)CC4)cc3F)ccnc2cc1OCCCN1CCOCC1 [Foretinib] (partner 0.25 µM)
Summary of the method: as §2

[2] = compound: COc1cc(-c2nn([C@H]3CC[C@H](N4CCN(C(C)=O)CC4)CC3)c3ncnc(N)c23)ccc1NC(=O)c1cc2ccccc2n1C + Cc1nc(NC(=O)N2CCC[C@H]2C(N)=O)sc1-c1ccnc(C(C)(C)C(F)(F)F)c1 [Alpelisib] (partner 2 µM)
Summary of the method: as §2

Cell Line UMC-11 has a relative viability ([1]; 0.0128 µM) of 1.04, a relative viability ([1]; 0.04048 µM) of 0.955 and a relative viability ([1]; 0.128 µM) of 0.927. For the same cell line, the relative viability ([1]; 1.28 µM) was 0.84, the relative viability (Midostaurin; 0.01 µM) was 0.984 and the relative viability (Midostaurin; 0.03162 µM) was 0.901. It also gave a relative viability (Midostaurin; 0.1 µM) of 1, a relative viability (Midostaurin; 0.3162 µM) of 0.617 and a relative viability (Midostaurin + Lapatinib; first compound 0.01 µM) of 0.936. The relative viability (Midostaurin + Lapatinib; first compound 0.03162 µM) was 0.836, the relative viability (Midostaurin + Lapatinib; first compound 0.1 µM) was 0.937 and the relative viability (Midostaurin + Lapatinib; first compound 0.3162 µM) was 0.513. For the same cell line, the relative viability (Midostaurin + Foretinib; first compound 0.01 µM) was 1.08, the relative viability (Midostaurin + Foretinib; first compound 0.03162 µM) was 0.946 and the relative viability (Midostaurin + Foretinib; first compound 0.1 µM) was 0.868. It also gave a relative viability (Midostaurin + Foretinib; first compound 0.3162 µM) of 0.234, a relative viability ([2]; first compound 0.0128 µM) of 0.892 and a relative viability ([2]; first compound 0.04048 µM) of 0.956. For the same cell line, the relative viability ([2]; first compound 0.128 µM) was 0.986 and the relative viability ([2]; first compound 1.28 µM) was 0.746.
